# Columns and labels:
# [1] = Reaction kinetics of amine N-oxide with p-nitrophenylboronic acid in water, UV/vis absorption of p-nitrophenol, pseudo-first order; settings: reaction with p-nitrophenylboronic acid (2) in water, room temperature
# Method: A first experiment was performed to determine the kinetic parameters for the reaction between TMAO (1) and p-nitrophenylboronic acid (2) in water (see FIG. 1, panel A). Reaction progress was monitored by UV/vis absorption of product p-nitrophenol (3) under pseudo-first order conditions. A second-order rate constant of 2.83±0.05×10^−6 M^−1s^−1 was determined for the reaction at room temperature, several orders of magnitude below current standards of bioorthogonal reactivity (see e.g., Lang et al., ACS Chem. Biol. 2014, 9, 16; McKay et al. Chem. Biol. 2014, 21, 1075; Patterson et al., ACS Chem. Biol. 2014, 9, 592; (e) Sletten et al., Angew. Chem. Int. Ed. 2009, 48, 6974) but nonetheless a starting point for kinetic optimization.
# [2] = tested on: HEK293T cells transiently transfected with a cytosolic GFP-HaloTag fusion construct; test: Intracellular uncaging and membrane permeability in live cells, confocal microscopy; type: cell-based, human
# Method: Green (left column), red (middle column), and blue (not shown) channels represent GFP, TAMRA, and Hoechst 33342 fluorescence, respectively. The merged image (right column) is a composite of all three channels with a phase contrast image.
# HEK293T cells were transiently transfected with a cytosolic GFP-HaloTag fusion construct, then treated with 100 µM compound 10.
# [3] = Reaction kinetics of N-oxides with B2pin2, stopped-flow fluorometry, pseudo-first order; settings: reaction with B2pin2 in PBS (pH 7.4), pseudo-first order conditions
# Method: Data represent the mean of experiments performed in triplicate. […] Data represent the mean of experiments performed in triplicate. Error bars represent a standard deviation. […] Data represent the mean of experiments performed in triplicate. […] Data represent the mean of experiments done in triplicate. Error bars represent a standard deviation.
# The kinetics of the reaction were first evaluated using N-oxide 6 (FIG. 2, panel A).
# The reaction was then performed on a biomolecule. […] It should be noted, however, that pseudo-first-order kinetics performed under saturating conditions can obscure important information regarding the deactivation of the diboron reagent through sequestration or off-target reactivity. To address this issue, a 64-kDa GFP-HaloTag fusion protein was expressed, ligated to compound 10 to produce GFP-HaloTag-10.
compound,measurement,setting,value
"C[N+](C)(C)[O-] [TMAO, Trimethylamine N-oxide]",second-order rate constant,[1],2.83±0.05×10^−6 M^−1s^−1
5(6)-HaloTag Tetramethylrhodamine Bis-N-Oxide [compound 10],TAMRA signal upon addition of B2pin2,"[2]; cells loaded with compound, washed, B2pin2 0 μM, 10 μM, 100 μM or 1 mM in media for 45 min",increased
same,membrane permeability,[2]; live HEK293T cells,cell permeable
HaloTag Rhodol N-Oxide [compound 8],second-order rate constant,[3],1.71±0.043×10^3 M^−1s^−1

# — US20180215783A1, “BIOORTHOGONAL REACTION OF AN AMINE N-OXIDE AND A BORON AGENT” (The Regents of the University of California, priority 2015, published 2018)
